In patent US10683293B2, “Optionally fused heterocyclyl-substituted derivatives of pyrimidine useful for the treatment of inflammatory, metabolic, oncologic and autoimmune diseases” (NUEVOLUTION A/S, priority 2014, dated 2020):

Key:
[1] = target: T1, human RORγt (Ligand Binding Domain) (Homo sapiens, UniProt P51449); experiment: Fluorescence Polarization (FP) Assay; settings: 100 nM human RORγt LBD, 25 nM TAMRA probe, values are activity range bounds
T1 construct: purchased Crelux (Planegg, Germany) batch no PC5032-1
T1 sequence (P51449 269-508 limits assumed): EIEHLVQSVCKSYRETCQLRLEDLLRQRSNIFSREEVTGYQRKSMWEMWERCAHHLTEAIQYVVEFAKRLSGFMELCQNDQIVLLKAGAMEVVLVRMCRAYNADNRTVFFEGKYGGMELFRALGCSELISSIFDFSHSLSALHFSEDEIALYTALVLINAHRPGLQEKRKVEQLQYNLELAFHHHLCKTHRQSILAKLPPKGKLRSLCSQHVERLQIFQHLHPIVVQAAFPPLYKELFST
Method in brief: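 In vitro fluorescence polarization binding assay on the RORγt ligand-binding pocket. A TAMRA-labelled RORγt ligand probe (MW 910 g/mol) was used, with DMSO as negative control.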

[2] = target: T2, ligand binding domain of human RORγ (Homo sapiens, UniProt P51449); experiment: RORγ Reporter Assay (Gal4); assay type: cell-based; settings: for inhibition at 1 µM: HEK-293T, 1 μM test compound, HEK293t RORγ reporter cells, 24 hour, read-out: Gal4 activity range @ 1 μM (% inhibition); for Gal4 activity range @ 0.1 μM (% inhibition): RORγ Reporter Assay (Gal4), HEK293t reporter cells, compound at 0.1 μM, values are activity range bounds
T2 construct: host or cells: HEK293t
T2 sequence (P51449 269-508 limits assumed): T1 sequence (P51449 269-508 limits assumed)
Method in brief: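 HEK293t cells expressing Gal4 DBD–human RORγ LBD hybrid with Gal4-UAS firefly luciferase reporter; compounds at final 1,000 nM and 100 nM (0.1% DMSO), triplicate, medium with 10% charcoal-stripped FBS, 24 h at 37 °C. Luminescence read; percent reduction of RORγ activity calculated versus vehicle-only wells.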

[3] = test system: female C57BL/6 mice; experiment: Experimental Autoimmune Encephalomyelitis (EAE) Study; assay type: in vivo, mouse; settings: 30 mg/kg, orally twice daily, from day of EAE induction, 25 days
[4] = test system: male DBA/1J mice; experiment: Collagen-Induced Arthritis (CIA) Study; assay type: in vivo, mouse; settings: 30 mg/kg, orally twice daily, therapeutic setting (from day 27 until day 41)
Description: Compounds disclosed herein have also been evaluated in two different mouse in vivo disease models: Experimental Autoimmune Encephalomyelitis (EAE) model (an animal model for multiple sclerosis), and Collagen-induced Arthritis (CIA) model (an animal model for rheumatoid arthritis).
Collagen-Induced Arthritis (CIA) Study
Collagen-induced arthritis is an animal model of rheumatoid arthritis used to evaluate the efficacy of test compounds. CIA was induced at Washington Biotechnology Inc. (Baltimore) in male DBA/1J mice (Jackson Laboratories) by subcutaneous injection at the base of the tail with 50 μl of a bovine collagen/complete Freund's adjuvant emulsion. After 21 days, the mice were further boosted by a further subcutaneous injection of 50 μl of a collagen/incomplete Freund's adjuvant emulsion. For treatment, compound or vehicle (2% DMSO, 10% HP-β-CD in MilliQ water) was given orally twice daily at various doses selected from 3, 10, 30 mg/kg, beginning at the day of CIA induction (Prophylactic setting), or after disease initiation (at day 27, therapeutic setting). Treatment lasted until day 41, and the animals were scored three times weekly. Each paw was scored and the sum of all four scores was recorded as the Arthritic Index (AI). […] The Arthritis Index for each treatment can be expressed as the mean score for each treatment group+/−S.E.M.

| SMILES | IC50 [1] [nM] | inhibition at 1 µM [2] [%] | Gal4 activity range @ 0.1 μM (% inhibition) [2] [% inhibition] | EAE clinical score [3] | onset of EAE [3] | disease severity (CIA, Arthritic Index) [4] | rate of disease development (CIA) [4] |
| --- | --- | --- | --- | --- | --- | --- | --- |
| CS(=O)(=O)N1CCC(CNc2ncnc(N(Cc3ccc(C(F)(F)F)cc3)C3CC3)c2F)CC1 [Example A7, N4-cyclopropyl-5-fluoro-N6-[(1-methylsulfonyl-4-piperidyl)methyl]-N4-[[4-(trifluoromethyl)phenyl]methyl] pyrimidine-4,6-diamine] | < 500 | > 80 | >80 | significantly lower the clinical score | delay onset | significantly reduce disease severity | decrease rate of disease development |
| CS(=O)(=O)N1CCC(C2(Nc3ncnc(N(Cc4ccc(C(F)(F)F)cc4)C4CC4)c3F)CC2)CC1 [Example A165, N6-cyclopropyl-5-fluoro-N4-[1-(1-methylsulfonyl-4-piperidyl)cyclopropyl]-N6-[[4-(trifluoromethyl)phenyl]methyl] pyrimidine-4,6-diamine] | < 500 | > 80 | >50 |  |  |  |  |
| O=C(C1CC1)N1CCC(CNc2ncnc(N(Cc3ccc(C(F)(F)F)cc3)C3CC3)c2F)CC1 [Example A167, cyclopropyl-[4-[[[6-[cyclopropyl-[[4-(trifluoromethyl)phenyl]methyl]amino]-5-fluoro-pyrimidin-4-yl]amino]methyl]-1-piperidyl]methanone] | < 500 | > 80 | >50 |  |  |  |  |
| NC(=O)Cc1ccc(CNc2ncnc(N(Cc3ccc(C(F)(F)F)cc3O)C3CC3)c2F)cc1 [Example A168, 2-[4-[[[6-[cyclopropyl-[[2-hydroxy-4-(trifluoromethyl)phenyl]methyl]amino]-5-fluoro-pyrimidin-4-yl]amino]methyl]phenyl]acetamide] | < 500 | > 80 | >50 |  |  |  |  |
| CS(=O)(=O)N1CCC2(CC1)CC2Nc1ncnc(N(Cc2ccc(C(F)(F)F)cc2)C2CC2)c1F (stereo not shown) [Example A169, N6-cyclopropyl-5-fluoro-N4-(6-methylsulfonyl-6-azaspiro[2.5]octan-2-yl)-N6-[[4-(trifluoromethyl)phenyl]methyl] pyrimidine-4,6-diamine] | < 500 | > 80 | >80 |  |  |  |  |
| NC(=O)Cc1ccc(CNc2ncnc(N(Cc3ccnc(C(F)(F)F)c3)C3CC3)c2F)cc1 [Example A170, 2-[4-[[[6-[cyclopropyl-[[2-(trifluoromethyl)-4-pyridyl]methyl]amino]-5-fluoro-pyrimidin-4-yl]amino]methyl]phenyl]acetamide] | < 500 | > 50 | >20 |  |  |  |  |
| CS(=O)(=O)N1[C@@H]2CC[C@H]1CC(CNc1ncnc(N(Cc3ccc(C(F)(F)F)cc3)C3CC3)c1F)C2 (stereo partly drawn) [Example A171, N6-cyclopropyl-5-fluoro-N4-[[(1S,5R)-8-methylsulfonyl-8-azabicyclo[3.2.1]octan-3-yl]methyl]-N6-[[4-(trifluoromethyl)phenyl]methyl] pyrimidine-4,6-diamine] | < 500 | > 80 | >80 |  |  |  |  |
| CS(=O)(=O)N1CCC2(CC2Nc2ncnc(N(Cc3ccc(C(F)(F)F)cc3)C3CC3)c2F)C1 (stereo not shown) [Example A172, N6-cyclopropyl-5-fluoro-N4-(6-methylsulfonyl-6-azaspiro[2.4]heptan-2-yl)-N6-[[4-(trifluoromethyl)phenyl]methyl] pyrimidine-4,6-diamine] | < 2000 | > 80 | >20 |  |  |  |  |
| CS(=O)(=O)N1CC2CC2(CNc2ncnc(N(Cc3ccc(C(F)(F)F)cc3)C3CC3)c2F)C1 (stereo not shown) [Example A174, N6-cyclopropyl-5-fluoro-N4-[(3-methylsulfonyl-3-azabicyclo[3.1.0]hexan-5-yl)methyl]-N6-[[4-(trifluoromethyl)phenyl]methyl] pyrimidine-4,6-diamine] | < 500 | > 80 | >20 |  |  |  |  |
| CS(=O)(=O)N1CC2CCC(Nc3ncnc(N(Cc4ccc(C(F)(F)F)cc4)C4CC4)c3F)C2C1 (stereo not shown) [Example A175, N6-cyclopropyl-5-fluoro-N4-(2-methylsulfonyl-3,3a,4,5,6,6a-hexahydro-1H-cyclopenta[c]pyrrol-4-yl)-N6-[[4-(trifluoromethyl)phenyl]methyl] pyrimidine-4,6-diamine] | < 500 | > 80 | >50 |  |  |  |  |
| NC(=O)Cc1ccc(CNc2ncnc(N(Cc3cccc(C(F)(F)F)n3)C3CC3)c2F)cc1 [Example A176, 2-[4-[[[6-[cyclopropyl-[[6-(trifluoromethyl)-2-pyridyl]methyl]amino]-5-fluoro-pyrimidin-4-yl]amino]methyl]phenyl]acetamide] | < 500 | > 50 | >0 |  |  |  |  |
| NC(=O)Cc1ccc(CNc2ncnc(N(Cc3cc(C(F)(F)F)ccn3)C3CC3)c2F)cc1 [Example A178, 2-[4-[[[6-[cyclopropyl-[[4-(trifluoromethyl)-2-pyridyl]methyl]amino]-5-fluoro-pyrimidin-4-yl]amino]methyl]phenyl]acetamide] | < 500 | > 20 | >0 |  |  |  |  |
| NC(=O)Cc1ccc(CNc2ncnc(N(Cc3ccc(C(F)F)nc3)C3CC3)c2F)cc1 [Example A179, 2-[4-[[[6-[cyclopropyl-[[6-(difluoromethyl)-3-pyridyl]methyl]amino]-5-fluoro-pyrimidin-4-yl]amino]methyl]phenyl]acetamide] | < 500 | > 80 | >20 |  |  |  |  |
| O=C(O)C[C@@H](CCc1ccccc1)Nc1ncnc(N(Cc2ccc(C(F)(F)F)cc2)C2CC2)c1F [Example A181, (3R)-3-[[6-[cyclopropyl-[[4-(trifluoromethyl)phenyl]methyl]amino]-5-fluoro-pyrimidin-4-yl]amino]-5-phenyl-pentanoic acid] | < 500 | > 80 | >0 |  |  |  |  |
| NC(=O)Cc1ccc(Cn2ccc3c(N(Cc4ccc(C(F)(F)F)cc4)C4CC4)ncnc32)cc1 [Example I1, 2-(4-((4-(cyclopropyl (4-(trifluoromethyl)benzyl)amino)-7H-pyrrolo[2,3-d]pyrimidin-7-yl)methyl)phenyl)acetamide] | < 500 | > 80 | >80 |  |  |  |  |
| Fc1c(NCc2ccc(Cc3nnn[nH]3)cc2)ncnc1N(Cc1ccc(C(F)(F)F)cc1)C1CC1 [Example T1, N6-cyclopropyl-5-fluoro-N4-[[4-(1H-tetrazol-5-ylmethyl)phenyl]methyl]-N6-[[4-(trifluoromethyl)phenyl]methyl] pyrimidine-4,6-diamine] | < 500 | > 80 | >50 |  |  |  |  |
| O=S(=O)(CC(F)(F)F)NC1CCC(CNc2ncnc(N(Cc3ccc(C(F)(F)F)cc3)C3CC3)c2F)CC1 (stereo not shown) [x, N-[4-[[[6-[cyclopropyl-[[4-(trifluoromethyl)phenyl]methyl]amino]-5-fluoro-pyrimidin-4-yl]amino]methyl]cyclohexyl]-2,2,2-trifluoro-ethanesulfonamide] | < 500 | > 50 | >20 |  |  |  |  |
